According to patent US10294202B2, “Pyrrolidinones as herbicides” (FMC Corporation, priority 2013, dated 2019):

Experiments:
dayflower, VA = test: Test E preemergence herbicide test; format: in vivo, Commelina virginica; design: key: 0 = no effect, 100 = complete control
From the text: Seeds of plant species selected from corn (Zea mays), soybean (Glycine max), velvetleaf (Abutilon theophrasti), lambsquarters (Chenopodium album), wild poinsettia (Euphorbia heterophylla), pigweed, palmer (palmer pigweed, Amaranthus palmeri), waterhemp (common waterhemp, Amaranthus rudis), surinam grass (Brachiaria decumbens), crabgrass, large (large crabgrass, Digitaria sanguinalis), crabgrass, Brazil (Brazilian crabgrass, Digitaria horizontalis), panicum, fall (fall panicum, Panicum dichotomiflorum), foxtail, giant (giant foxtail, Setaria faberii), foxtail, green (green foxtail, Setaria viridis), goosegrass (Eleusine indica), johnsongrass (Sorghum halepense), ragweed (common ragweed, Ambrosia elatior), barnyardgrass (Echinochloa crus-galli), sandbur (southern sandbur, Cenchrus echinatus), arrowleaf […] rhombifolia), ryegrass, Italian (Italian ryegrass, Lolium multiflorum), dayflower, VA (Virginia dayflower, Commelina virginica), field bindweed (Convolvulus arvensis), morningglory (Ipomoea coccinea), nightshade (eastern black nightshade, Solanum ptycanthum), kochia (Kochia scoparia), nutsedge, yellow (yellow nutsedge, Cyperus esculentus), cocklebur (common cocklebur, Xanthium strumarium), smartweed (ladysthumb smartweed, Polygonum Persicaria) and beggarticks (hairy beggarticks, Bidens pilosa), were planted into a silt loam soil and treated preemergence with test chemicals formulated in a non-phytotoxic solvent mixture which included a surfactant. Treated plants and controls were maintained in a greenhouse for 21 days, after which time all species were compared to controls and visually evaluated. Plant response ratings, summarized in Table E, are based on a scale of 0 to 100 where 0 is no effect and 100 is complete control. A dash (-) response means no test result.

chamomile = test: Test D pre-/postemergence herbicide test; format: in vivo, Matricaria inodora; conditions: for Plant response rating: Chamomile, scale 0 to 100; for Plant response rating, Chamomile: scale 0 to 100 (0 no effect, 100 complete control)
Summary of the method: (§1)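 Test chemicals in a non-phytotoxic solvent with surfactant were applied preemergence to seeds in silt loam soil and postemergence to plants at 2-18 cm (1- to 4-leaf stage) in peat-based medium. After 7 to 21 days in a controlled environment, injury was rated visually versus controls on a 0-100 scale (100 = complete control).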

deadnettle = test: Test D pre-/postemergence herbicide test; format: in vivo, Lamium amplexicaule; conditions: for Plant response rating: Deadnettle, scale 0 to 100; for Plant response rating, Deadnettle: scale 0 to 100 (0 no effect, 100 complete control)
Summary of the method: as §1

surinam grass = test: Test C pre-/postemergence herbicide test; format: in vivo, Brachiaria decumbens
From the text: (§2) Seeds of plant species selected from blackgrass (Alopecurus myosuroides), ryegrass, Italian (Italian ryegrass, Lolium multiflorum), wheat (winter wheat, Triticum aestivum), galium (catchweed bedstraw, Galium aparine), corn (Zea mays), crabgrass, large (large crabgrass, Digitaria sanguinalis), foxtail, giant (giant foxtail, Setaria faberii), johnsongrass (Sorghum halepense), lambsquarters (Chenopodium album), morningglory (Ipomoea coccinea), nutsedge, yellow (yellow nutsedge, Cyperus esculentus), pigweed (Amaranthus retroflexus), ragweed (common ragweed, Ambrosia elatior), soybean (Glycine max), barnyardgrass (Echinochloa crus-galli), oilseed rape (Brassica napus), waterhemp (common waterhemp, Amaranthus rudis), kochia (Kochia scoparia), oat, wild (wild oat, Avena fatua), surinam grass (Brachiaria decumbens), foxtail, green (green foxtail, Setaria viridis), goosegrass (Eleusine indica), bromegrass, downy (downy bromegrass, Bromus tectorum), nightshade (eastern black nightshade, Solanum ptycanthum), cocklebur (common cocklebur, Xanthium strumarium), cupgrass, woolly (woolly cupgrass, Eriochloa villosa), bermudagrass (Cynodon dactylon), sunflower, (common oilseed sunflower, Helianthus annuus), Russian thistle (Salsola kali) and velvetleaf (Abutilon theophrasti) were planted into a blend of loam soil and sand and treated preemergence with test chemicals formulated in a non-phytotoxic solvent mixture which included a surfactant. At the same time, plants selected from these crop and weed species and also barley (winter barley, Hordeum vulgare), […]), chickweed (common chickweed, Stellaria media), deadnettle (henbit deadnettle, Lamium amplexicaule), and canarygrass (littleseed canarygrass, Phalaris minor) were planted in pots containing Redi-Earth® planting medium (Scotts Company, 14111 Scottslawn Road, Marysville, Ohio 43041) comprising spaghnum peat moss, vermiculite, wetting agent and starter nutrients and treated with postemergence applications of test chemicals formulated in the same manner. Plants ranged in height from 2 to 18 cm (1- to 4-leaf stage) for postemergence treatments. Treated plants and controls were maintained in a greenhouse for 13 to 15 days, after which time all species were compared to controls and visually evaluated. Plant response ratings, summarized in Table C, are based on a scale of 0 to 100 where 0 is no effect and 100 is complete control. A dash (-) response means no test result.

nightshade = test: Test C pre-/postemergence herbicide test; format: in vivo, Solanum ptycanthum; conditions: Preemergence
From the text: as §2

[1] = Preemergence, 62 g ai/ha, scale 0 to 100
[2] = Preemergence, 125 g ai/ha, scale 0 to 100 (0 no effect, 100 complete control)
[3] = 125 g ai/ha, scale 0 to 100 (0 no effect, 100 complete control)
[4] = Postemergence, 31 g ai/ha, scale 0 (no effect) to 100 (complete control)
[5] = Postemergence, 62 g ai/ha, scale 0 to 100 (0 no effect, 100 complete control)
[6] = Postemergence, 125 g ai/ha, scale 0 to 100 (0 no effect, 100 complete control)

| Structure (SMILES) | Plant response rating (chamomile; Postemergence, 31 g ai/ha) | Plant response rating (chamomile; Postemergence, 62 g ai/ha) | Plant response rating (chamomile; Postemergence, 125 g ai/ha) | Plant response rating (chamomile; Postemergence, 250 g ai/ha) | Plant response rating, Chamomile (chamomile; Preemergence, 62 g ai/ha) | Plant response rating, Chamomile (chamomile; Preemergence, 31 g ai/ha) | Plant response rating (chamomile; Preemergence, 125 g ai/ha) | Plant response rating (chamomile; Preemergence, 250 g ai/ha) | Plant response rating (deadnettle; Postemergence, 31 g ai/ha) | Plant response rating (deadnettle; Postemergence, 62 g ai/ha) | Plant response rating (deadnettle; Postemergence, 125 g ai/ha) | Plant response rating (deadnettle; Postemergence, 250 g ai/ha) | Plant response rating, Deadnettle (deadnettle; Preemergence, 62 g ai/ha) | Plant response rating, Deadnettle (deadnettle; Preemergence, 31 g ai/ha) | Plant response rating (deadnettle; Preemergence, 125 g ai/ha) | Plant response rating (deadnettle; Preemergence, 250 g ai/ha) | Plant response rating, Surinam Grass (surinam grass; [1]) | Plant response rating, Surinam Grass (surinam grass; [2]) | Plant response rating, Nightshade (nightshade; 62 g ai/ha, scale 0 to 100) | Plant response rating, Nightshade (nightshade; [3]) | also measured |
| --- | --- | --- | --- | --- | --- | --- | --- | --- | --- | --- | --- | --- | --- | --- | --- | --- | --- | --- | --- | --- | --- |
| O=C1NCC(c2ccc(C(F)(F)F)cc2)C1C(=O)Nc1cccc(F)c1F (racemic) [Compound 202] | 5 | 60 | 65 | 60 | 65 | 60 | 75 | 100 | 5 | 35 | 60 | 70 | 65 | 40 | 80 | 85 | – | – | – | – | Plant response rating, Dayflower, VA (dayflower, VA; 31 g ai/ha): 0; Plant response rating, Dayflower, VA (dayflower, VA; 62 g ai/ha): 0; Plant response rating, Dayflower, VA (dayflower, VA; 125 g ai/ha): 0; Plant response rating, Dayflower, VA (dayflower, VA; 250 g ai/ha): 40 |
| O=C1NCCC1C(=O)N(c1ccc(F)c(F)c1)c1ccccc1F (stereo not shown) [Compound 5, N-(3,4-difluorophenyl)-N-(2-fluorophenyl)-2-oxo-3-pyrrolidinecarboxamide] | – | – | – | – | – | – | – | – | – | – | – | – | – | – | – | – | 85 | 95 | 45 | 45 | – |
| O=C1NCC(c2cc(F)c(F)c(F)c2)C1C(=O)Nc1cccc(F)c1F (stereo not shown) [Compound 48] | – | – | – | – | – | – | – | – | – | – | – | – | – | – | – | – | 75 | 85 | 0 | 0 | Plant response rating, Surinam Grass (surinam grass; Postemergence, 16 g ai/ha, scale 0 to 100 (0 no effect, 100 complete control)): 0; Plant response rating, Surinam Grass (surinam grass; [4]): 5; Plant response rating, Surinam Grass (surinam grass; [5]): 25; Plant response rating, Surinam Grass (surinam grass; [6]): 25; Plant response rating, Surinam Grass (surinam grass; Preemergence, 16 g ai/ha, scale 0 to 100): 10; Plant response rating, Nightshade (nightshade; 16 g ai/ha, scale 0 to 100): 0 |
| O=C1NCC(c2ccc(Cl)c(F)c2)C1C(=O)Nc1cccc(F)c1F (stereo not shown) [Compound 52] | 0 | 0 | 20 | 20 | 75 | 20 | 75 | 80 | 0 | 0 | 20 | 25 | 0 | 0 | 0 | 30 | 35 | 45 | 0 | 0 | Plant response rating, Surinam Grass (surinam grass; [4]): 0; Plant response rating, Surinam Grass (surinam grass; [5]): 5; Plant response rating, Surinam Grass (surinam grass; Postemergence, 250 g ai/ha, scale 0 to 100 (0 no effect, 100 complete control)): 30; Plant response rating (chamomile; Postemergence, 16 g ai/ha): 0; Plant response rating, Chamomile (chamomile; Preemergence, 16 g ai/ha): 20; Plant response rating (deadnettle; Postemergence, 16 g ai/ha): 0; Plant response rating, Deadnettle (deadnettle; Preemergence, 16 g ai/ha): 0 |
| O=C1NCC(c2ccc(F)c(Cl)c2)C1C(=O)Nc1ccccc1F (stereo not shown) [Compound 60] | – | – | – | – | – | – | – | – | – | – | – | – | – | – | – | – | 70 | 70 | 0 | 0 | Plant response rating, Surinam Grass (surinam grass; [4]): 0; Plant response rating, Surinam Grass (surinam grass; [5]): 0; Plant response rating, Surinam Grass (surinam grass; [6]): 0 |
| O=C1NCC(c2cccc(OC(F)(F)F)c2)C1C(=O)Nc1ccccc1F (stereo not shown) [Compound 69] | – | – | – | – | – | – | – | – | – | – | – | – | – | – | – | – | 75 | 85 | 0 | 0 | Surinam Grass plant response rating (surinam grass; Preemergence, 31 g ai/ha, scale 0 to 100, 0 is no effect and 100 is complete control): 60; Plant response rating (scale of 0 to 100), Surinam Grass (surinam grass; Preemergence, 250 g ai/ha): 85; Nightshade plant response rating (nightshade; 31 g ai/ha, scale 0 to 100, 0 is no effect and 100 is complete control): 0; Plant response rating (scale of 0 to 100), Nightshade (nightshade; 250 g ai/ha): 0 |
| O=C1NCC(c2ccc(C(F)(F)F)cc2)C1C(=O)Nc1cccc(F)c1F (stereo not shown) [Compound 80, N-(2,3-difluorophenyl)-2-oxo-4-[4-(trifluoromethyl)phenyl]-3-pyrrolidinecarboxamide] | 20 | 30 | 35 | 50 | 80 | 80 | 80 | 85 | 70 | 60 | 70 | 40 | 0 | 0 | 65 | 70 | – | – | – | – | Plant response rating, Dayflower, VA (dayflower, VA; 16 g ai/ha): 0; Plant response rating, Dayflower, VA (dayflower, VA; 31 g ai/ha): 0; Plant response rating, Dayflower, VA (dayflower, VA; 62 g ai/ha): 0; Plant response rating, Dayflower, VA (dayflower, VA; 125 g ai/ha): 0; Plant response rating, Dayflower, VA (dayflower, VA; 250 g ai/ha): 0 |
